“Also recorded” adds a separate entry of the source.
Tests used:
MNV(SH1603) = assay: Infection assay with MNV in RAW264.7 cells (qRT-PCR); type: cell-based, murine norovirus (MNV)
DENV RdRp [1] = molecular target: T1, DENV RdRp (Dengue virus type 3, UniProt Q6YMS4); assay: DENV-RdRp inhibition assay (PicoGreen dsRNA formation); type: biochemical; design: RdRp gens of DENV; inferred from Ni-NTA purification and the pET-21a(+) vector); made in house; host or cells: Escherichia coli BL21; conditions: 40 μM compound
Method: Polymerase activity was measured by detecting the formation of double-stranded RNA (dsRNA) using the fluorescent dye PicoGreen ([Singer et al., 1997]). RdRp assays were performed in a black 96-well plates, which protects reaction mixture from light. In vitro RNA synthesis assays were performed using a single-stranded RNA poly(C) as template and GTP as substrate in a 25 μL reaction mixture. 5 μL of DENV-RdRp (20 μM), dissolved in a reaction buffer containing 20 mM Tris–HCl (pH 7.4), 2.5 mM MnCl2, 5 mM DTT, was incubated with 1 μL of 1 mM compound (RAI-5, RAI-13, RAI-14, and JF-31-MG46 served as positive control) or the compound vehicle DMSO at 30°C for 10 min. Subsequently, 1 μL of 1 mg/mL poly(C) and 2 μL of 625 μM GTP were added into the mixture for 60 min at 30°C. The final concentrations of the reaction components are 4 μM DENV-RdRp, […], 50 μM GTP, 40 μM compound, 4% DMSO, […] (pH 7.4), 2.5 mM MnCl2 and 5 mM DTT. The reaction was terminated with 10 mM EDTA. After that, 175 μL of fluorescent dye PicoGreen, diluted 200-fold with TE buffer, was added to each well for 5 min at room temperature. Microplate reader was used to quantify the amount of dsRNA at standard wavelengths (excitation 480 nm, emission 520 nm).

[2] = oral, rat; no reference given; cited from earlier work
hNV-RdRp = hNV-RdRp inhibition assay (PicoGreen dsRNA formation); type: biochemical, Norovirus GII.4 Sydney 2012; conditions: dose response, two-fold dilutions
VSV-G/HIV-Fluc = type: cell-based, human immunodeficiency viruses type 1 (HIV-1)
DENV2 (Tr1751) = assay: Infection assay with DENV2 in A549 cells (qRT-PCR); type: cell-based
Method: 5 × 10^5 per well A549 cells were seeded into 6-well plates for 24 h, and infected with DENV2 (Tr1751) at an MOI of 0.1 in the presence of RAI-13 with 2-fold dilutions (from 0.08 to 20 μM) for 4 h. The culture supernatants were replaced by Fresh medium with RAI-13 with 2-fold dilutions. Cells were harvested at 48 h.p.i. The RNA extraction kit was used to extract total RNA. The level of viral RNA was determined by qRT-PCR analysis through one-step SYBR PrimeScript RT-PCR kit ([Yi et al., 2019]). The primer pair (forward: 5′-[…]-3′ and reverse: 5′-[…]-3′) amplifies partial envelop protein E gene of DENV2. The Forward and Reverse primers were also, respectively, used for minus-strand and plus-strand RNA reverse transcription. Human glyceraldehyde-3-phosphate dehydrogenase (hGAPDH) was served as an internal control and amplified with primers 5′-ATCA[…]-3′ and 5′-[…]-3′.

A549 cells = assay: Cytotoxicity analysis (Cell Counting kit-8), A549; type: cell-based; conditions: up to 10 μM, 48 h, CCK-8
Method: (§1) Twenty-four hour prior to the cytotoxicity assay, 4 × 10^4 RAW264.7 or A549 cells were seeded in 96-well plates. After that, 2-fold serial dilutions (from 0.625 to 40 μM) of RAI-13 were added to the cells. Cells treated with DMSO were served as the control. Cells were cultivated for 48 h, after that the cell viability was assessed by Cell Counting kit-8.

[3] = Cytotoxicity analysis (Cell Counting kit-8), A549; type: cell-based; conditions: human, A549 cells, CCK-8
Method: as §1

DENV RdRp [4] = molecular target: T1, DENV RdRp; assay: Bio-layer interferometry (BLI) binding assay, DENV RdRp
[5] = test system: Gaussia luciferase (Gluc); assay: Effect on Gluc activity in pcDNA-Gluc transfected Huh7.5.1 cells (negative control); type: cell-based; conditions: concentrations up to 5 μM, 48 h
hNV RdRp = assay: Bio-layer interferometry (BLI) binding assay, hNV RdRp; conditions: read-out: KD hNV RdRp, 1:1 binding model, global fit
RAW264.7 cells = assay: Cytotoxicity analysis (Cell Counting kit-8), RAW264.7; type: cell-based; conditions: up to 10 μM, 48 h, CCK-8
Method: as §1

[6] = as above; type: cell-based; conditions: mouse, RAW264.7 cells, CCK-8
Method: as §1

Jc1-Gluc HCVcc = assay: Infection assay with Jc-1-Gluc HCVcc in Huh7.5.1 cells; type: cell-based, hepatitis C virus (HCV); conditions: Hepatitis C virus
Method: 2 × 10^4 per well Huh7.5.1 cells were seeded into 96-well plates for 24 h, and then cells were incubated with RAI-13 (1 μM) and Jc1-Gluc HCVcc at an MOI of 1 for 4 h. Next, the culture supernatants were replaced by Fresh medium with 1 μM RAI-13. After 48 h, we measured the amounts of infectious Jc1 HCVcc in the supernatant by detecting the activity of Gaussia luciferase (Gluc), using a Centro XS3 LB 960 luminometer.

DENV RdRp [7] = molecular target: DENV RdRp; design: method as in Noble et al., 2016; conditions: ref Noble et al., 2016; read-out: KD DENV RdRp (literature); cited from earlier work

For `CN1CCN(c2ccc(C(=O)Nc3n[nH]c4ccc(Cc5cc(F)cc(F)c5)cc34)c(NC3CCOCC3)c2)CC1` [RAI-13, Entrectinib], the “plus-strand and minus-strand RNA levels of MNV” value (MNV(SH1603); 2.5 μM, infected RAW264.7 cells) was “inhibits the synthesis of both plus-strand and minus-strand RNA”, the IC50 (MNV(SH1603); Norwalk virus, RAW264.7, in abstract, read-out: IC50 inhibition of MNV infection (abstract)) was 2.01 µM and the EC50 (MNV(SH1603); Norwalk virus, RAW264.7 cells, 48 h, MNV RNA by qRT-PCR, read-out: EC50 inhibition of MNV infection) was 2.01 µM. For the same molecule, the “inhibitory effect on DENV RdRp activity” value (DENV RdRp [1]) was “markedly inhibited”, the LD50 [2] was “above 2000 mg/kg” and the IC50 (hNV-RdRp) was 46.9 µM. The “inhibition of HIV-1 (VSV-G/HIV-Fluc) infection” value (VSV-G/HIV-Fluc) was “did not show any inhibition effect”, the “plus-strand and minus-strand RNA levels of DENV2” value (DENV2 (Tr1751); 2 μM, infected A549 cells) was “inhibits the synthesis of both plus-strand and minus-strand RNA” and the IC50 (DENV2 (Tr1751); Dengue virus, DENV2, A549, read-out: IC50 inhibition of DENV2 infection (abstract)) was 2.43 µM. For the same molecule, the EC50 (DENV2 (Tr1751); Dengue virus, A549 cells, 48 h, DENV2 RNA by qRT-PCR, read-out: EC50 inhibition of DENV2 infection) was 2.43 µM, the “cytotoxic effect on A549 cells” value (A549 cells) was “No cytotoxic effect; also recorded: did not observe apparent cytotoxicity” and the CC50 at 48 h [3] was 20.8 µM. For the same molecule, the Kd (DENV RdRp [4]) was 166 µM, the “effect on Gluc activity” value [5] was “no inhibitory effect” and the Kd (hNV RdRp) was 39.9 µM. The “cytotoxic effect on RAW264.7 cells” value (RAW264.7 cells) was “No cytotoxic effect; also recorded: did not observe apparent cytotoxicity”, the CC50 at 48 h [6] was 13.2 µM and the inhibition at 1 µM (Jc1-Gluc HCVcc; Huh-7.5.1, 48 h, read-out: inhibition of Jc1 HCVcc infection) was 95%. It also gave an inhibition at 2 µM (Jc1-Gluc HCVcc; Huh-7.5.1, read-out: inhibition of HCV infection (abstract)) of 95%.
In the case of `O=c1[nH]c2ccccc2n1C1CCN(Cc2ccc(-c3nc4cc5[nH]cnc5cc4nc3-c3ccccc3)cc2)CC1` [RAI-5, AKT inhibitor VIII], the “inhibitory effect on DENV RdRp activity” value (DENV RdRp [1]) is reported as “no inhibitory effect” and the IC50 (hNV-RdRp) is reported as 47.3 µM.
In the case of `Cc1ccc(NC(=O)Nc2cc(C(F)(F)F)ccc2F)cc1Nc1ccc2c(c1)NC(=O)/C2=C\c1ccc[nH]1` [RAI-14, GNF-5837], the “inhibitory effect on DENV RdRp activity” value (DENV RdRp [1]) is reported as “no inhibitory effect” and the IC50 (hNV-RdRp) is reported as 45.5 µM.
For `COc1ccc(CC(=O)O)cc1-c1ccccc1` [JF-31-MG46, 2-(4-methoxy-3-phenyl-phenyl)ethanoic acid], the Kd (DENV RdRp [7]) is given as 210 µM.
